What follows are compounds tested on FGFR3 enzyme (assay: FGFR Enzymatic Assay (FRET peptide phosphorylation), FGFR3). Conditions: IC50 ratio showing FGFR3 selectivity; Table 2A, pre-incubated for 4 hours.
Format: biochemical
Method: The inhibitor potency of the exemplified compounds was measured in an enzyme assay that measures peptide phosphorylation using FRET measurements to detect product formation. Inhibitors were serially diluted in DMSO and a volume of 0.5 μL was transferred to the wells of a 384-well plate.
GraphPad prism3 was used to analyze the data.

Structure (SMILES)	FGFR1/FGFR3	FGFR4/FGFR3
COc1cc(OC)c(F)c(N2Cc3cnc(-c4cnn(CC5CN(S(C)(=O)=O)C5)c4)cc3C3(CC3)C2=O)c1F [Example 166, 2′-(2,6-difluoro-3,5-dimethoxyphenyl)-6′-(1-((1-(methylsulfonyl)azetidin-3-yl)methyl)-1H-pyrazol-4-yl)-1′H-spiro[cyclopropane-1,4′-[2,7]naphthyridin]-3′(2′H)-one]	>3	>3
COc1cc(OC)c(F)c(N2Cc3cnc(-c4cnn(CC5CN(C(C)=O)C5)c4)cc3C3(CC3)C2=O)c1F [Example 167, 6′-(1-((1-acetylazetidin-3-yl)methyl)-1H-pyrazol-4-yl)-2′-(2,6-difluoro-3,5-dimethoxyphenyl)-1′H-spiro[cyclopropane-1,4′-[2,7]naphthyridin]-3′(2′H)-one]	>3	>3
COc1cc(OC)c(F)c(N2Cc3cnc(-c4ccccc4)cc3C3(CC3)C2=O)c1F [Example 17, 2′-(2,6-difluoro-3,5-dimethoxyphenyl)-6′-phenyl-1′H-spiro[cyclopropane-1,4′-[2,7]naphthyridin]-3′(2′H)-one]	>10	
COc1cc(OC)c(F)c(N2Cc3cnc(-c4cn(C)nc4C)cc3N(c3cccc(-c4cnnn4C)c3)C2=O)c1F [Example 89, 3-(2,6-difluoro-3,5-dimethoxyphenyl)-7-(1,3-dimethyl-1H-pyrazol-4-yl)-1-(3-(1-methyl-1H-1,2,3-triazol-5-yl)phenyl)-3,4-dihydropyrido[4,3-d]pyrimidin-2(1H)-one]	>5	>10
CCN1C(=O)N(c2c(F)c(OC)cc(OC)c2F)Cc2cnc(-c3ccccc3)cc21 [Example 22, 3-(2,6-difluoro-3,5-dimethoxyphenyl)-1-ethyl-7-phenyl-3,4-dihydropyrido[4,3-d]pyrimidin-2(1H)-one]	>5	
COc1cc(OC)c(F)c(N2Cc3cnc(-c4cnn(C5(C#N)CCC5)c4C)cc3C3(CC3)C2=O)c1F [Example 149, 1-(4-(2′-(2,6-difluoro-3,5-dimethoxyphenyl)-3′-oxo-2′,3′-dihydro-1′H-spiro[cyclopropane-1,4′-[2,7]naphthyridine]-6′-yl)-5-methyl-1H-pyrazol-1-yl)cyclobutanecarbonitrile]	>5	>3
CCN1C(=O)N(c2c(F)c(OC)cc(OC)c2F)Cc2cnc(-c3ccc(CN4CC[C@H](C#N)C4)cc3)cc21 [Example 25, (S)-1-(4-(3-(2,6-difluoro-3,5-dimethoxyphenyl)-1-ethyl-2-oxo-1,2,3,4-tetrahydropyrido[4,3-d]pyrimidin-7-yl)benzyl)pyrrolidine-3-carbonitrile]	>5	>5
COc1cc(OC)c(F)c(N2Cc3cnc(-c4ccncc4)cc3C3(CC3)C2=O)c1F [Example 185, 2′-(2,6-difluoro-3,5-dimethoxyphenyl)-6′-(pyridin-4-yl)-1′H-spiro[cyclopropane-1,4′-[2,7]naphthyridin]-3′(2′H)-one]	>3	>3
COc1cc(OC)c(F)c(N2Cc3cnc(-c4cnn(CC5CCCS(=O)(=O)N5)c4)cc3C3(CC3)C2=O)c1F (centres unmarked) [Example 162, 2′-(2,6-difluoro-3,5-dimethoxyphenyl)-6′-{1-[(1,1-dioxido-1,2-thiazinan-3-yl)methyl]-1H-pyrazol-4-yl}-1′H-spiro[cyclopropane-1,4′-[2,7]naphthyridin]-3′(2′H)-one]	>5	>1
COc1cc(OC)c(F)c(N2Cc3cnc(-c4cn(C)nc4C)cc3N(c3ccc(C(=O)N(C)C)cc3)C2=O)c1F [Example 113, 4-(3-(2,6-difluoro-3,5-dimethoxyphenyl)-7-(1,3-dimethyl-1H-pyrazol-4-yl)-2-oxo-3,4-dihydropyrido[4,3-d]pyrimidin-1(2H)-yl)-N,N-dimethylbenzamide]	>3	>5
COc1cc(OC)c(F)c(N2Cc3cnc(-c4ccc(C5(C#N)CCC5)nc4)cc3N(c3cnn(C)c3)C2=O)c1F [Example 188, 1-{5-[3-(2,6-difluoro-3,5-dimethoxyphenyl)-1-(1-methyl-1H-pyrazol-4-yl)-2-oxo-1,2,3,4-tetrahydropyrido[4,3-d]pyrimidin-7-yl]pyridin-2-yl}cyclobutanecarbonitrile]	>5	>5
CCn1cnc(-c2cc3c(cn2)CN(c2c(F)c(OC)cc(OC)c2F)C(=O)C32CC2)c1 [Example 53, 2′-(2,6-difluoro-3,5-dimethoxyphenyl)-6′-(1-ethyl-1H-imidazol-4-yl)-1′H-spiro[cyclopropane-1,4′-[2,7]naphthyridin]-3′(2′H)-one]	>5	>5
COc1cc(OC)c(F)c(N2Cc3cnc(-c4cnn(C5CCN(S(C)(=O)=O)C5)c4)cc3C3(CC3)C2=O)c1F (centres unmarked) [Example 147, 2′-(2,6-difluoro-3,5-dimethoxyphenyl)-6′-(1-(1-(methylsulfonyl)pyrrolidin-3-yl)-1H-pyrazol-4-yl)-1′H-spiro[cyclopropane-1,4′-[2,7]naphthyridin]-3′(2′H)-one]	>10	>3

Other lines, results leading:

FGFR1/FGFR3	FGFR4/FGFR3	Structure (SMILES)
>3	>5	COc1cc(OC)c(F)c(N2Cc3cnc(-c4cn(C)nc4C)cc3N(c3cc(F)cc(F)c3)C2=O)c1F [Example 103, 3-(2,6-difluoro-3,5-dimethoxyphenyl)-1-(3,5-difluorophenyl)-7-(1,3-dimethyl-1H-pyrazol-4-yl)-3,4-dihydropyrido[4,3-d]pyrimidin-2(1H)-one]
>5	>5	COc1cc(OC)c(F)c(N2Cc3cnc(-c4cn(C)nc4C)cc3N(Cc3ccncc3)C2=O)c1F [Example 69, 3-(2,6-difluoro-3,5-dimethoxyphenyl)-7-(1,3-dimethyl-1H-pyrazol-4-yl)-1-(pyridin-4-ylmethyl)-3,4-dihydropyrido[4,3-d]pyrimidin-2(1H)-one]
>5	>5	COc1cc(OC)c(F)c(N2Cc3cnc(-c4cn(C)nc4C)cc3N(C3(C#N)CC3)C2=O)c1F [Example 91, 1-(3-(2,6-difluoro-3,5-dimethoxyphenyl)-7-(1,3-dimethyl-1H-pyrazol-4-yl)-2-oxo-3,4-dihydropyrido[4,3-d]pyrimidin-1(2H)-yl)cyclopropanecarbonitrile]
>5	>10	COc1cc(OC)c(F)c(N2Cc3cnc(-c4cn(C)nc4C)cc3N(Cc3cnn(C)c3)C2=O)c1F [Example 72, 3-(2,6-difluoro-3,5-dimethoxyphenyl)-7-(1,3-dimethyl-1H-pyrazol-4-yl)-1-((1-methyl-1H-pyrazol-4-yl)methyl)-3,4-dihydropyrido[4,3-d]pyrimidin-2(1H)-one]
>10	>10	COc1cc(OC)c(F)c(N2Cc3cnc(-c4cn(C)nc4C)cc3N(c3ccc(F)cc3)C2=O)c1F [Example 40, 3-(2,6-difluoro-3,5-dimethoxyphenyl)-7-(1,3-dimethyl-1H-pyrazol-4-yl)-1-(4-fluorophenyl)-3,4-dihydropyrido[4,3-d]pyrimidin-2(1H)-one]
>3	>10	CCn1cc(N2C(=O)N(c3c(F)c(OC)cc(OC)c3F)Cc3cnc(-c4cn(C)nc4C)cc32)cn1 [Example 131, 3-(2,6-difluoro-3,5-dimethoxyphenyl)-7-(1,3-dimethyl-1H-pyrazol-4-yl)-1-(1-ethyl-1H-pyrazol-4-yl)-3,4-dihydropyrido[4,3-d]pyrimidin-2(1H)-one]
>5	>5	COc1cc(OC)c(F)c(N2Cc3cnc(-c4cn(C)nc4C)cc3N(C(C)C)C2=O)c1F [Example 90, 3-(2,6-difluoro-3,5-dimethoxyphenyl)-7-(1,3-dimethyl-1H-pyrazol-4-yl)-1-isopropyl-3,4-dihydropyrido[4,3-d]pyrimidin-2(1H)-one]
>3	>5	CCCn1cc(N2C(=O)N(c3c(F)c(OC)cc(OC)c3F)Cc3cnc(-c4cn(C)nc4C)cc32)cn1 [Example 132, 3-(2,6-difluoro-3,5-dimethoxyphenyl)-7-(1,3-dimethyl-1H-pyrazol-4-yl)-1-(1-propyl-1H-pyrazol-4-yl)-3,4-dihydropyrido[4,3-d]pyrimidin-2(1H)-one]
>3	>5	COc1cc(OC)c(F)c(N2Cc3cnc(-c4cn(C)nc4C)cc3N(c3ccc4[nH]ncc4c3)C2=O)c1F [Example 134, 3-(2,6-difluoro-3,5-dimethoxyphenyl)-7-(1,3-dimethyl-1H-pyrazol-4-yl)-1-(1H-indazol-5-yl)-3,4-dihydropyrido[4,3-d]pyrimidin-2(1H)-one]
>10	>10	COc1cc(OC)c(F)c(N2Cc3cnc(-c4cn(C)nc4C)cc3N(Cc3cnn(C4CC4)c3)C2=O)c1F [Example 124, 1-((1-cyclopropyl-1H-pyrazol-4-yl)methyl)-3-(2,6-difluoro-3,5-dimethoxyphenyl)-7-(1,3-dimethyl-1H-pyrazol-4-yl)-3,4-dihydropyrido[4,3-d]pyrimidin-2(1H)-one]
>1	>5	COc1cc(OC)c(F)c(N2Cc3cnc(-c4cn(C)nc4C)cc3N(C3CCCC3)C2=O)c1F [Example 32, 1-cyclopentyl-3-(2,6-difluoro-3,5-dimethoxyphenyl)-7-(1,3-dimethyl-1H-pyrazol-4-yl)-3,4-dihydropyrido[4,3-d]pyrimidin-2(1H)-one]
>1	>10	COc1cc(OC)c(F)c(N2Cc3cnc(-c4cn(C)nc4C)cc3N(CC3CCOCC3)C2=O)c1F [Example 37, 3-(2,6-difluoro-3,5-dimethoxyphenyl)-7-(1,3-dimethyl-1H-pyrazol-4-yl)-1-((tetrahydro-2H-pyran-4-yl)methyl)-3,4-dihydropyrido[4,3-d]pyrimidin-2(1H)-one]
>5	>10	COc1cc(OC)c(F)c(N2Cc3cnc(-c4cn(C)nc4C)cc3N(c3ccc(CC#N)cc3)C2=O)c1F [Example 97, 2-(4-(3-(2,6-difluoro-3,5-dimethoxyphenyl)-7-(1,3-dimethyl-1H-pyrazol-4-yl)-2-oxo-3,4-dihydropyrido[4,3-d]pyrimidin-1(2H)-yl)phenyl)acetonitrile]

From patent US11173162B2, “Bicyclic heterocycles as FGFR4 inhibitors” (Incyte Corporation, priority 2015, dated 2021)
